Biological target: T1, recombinant human GS (GSH synthetase, glutathione synthetase) (Homo sapiens, UniProt P48637)
T1 construct: gene GSS; commercial recombinant protein (Abcam, Cambridge, UK), labelled on amines with BLUE-NHS dye
T1 sequence (P48637 2-474): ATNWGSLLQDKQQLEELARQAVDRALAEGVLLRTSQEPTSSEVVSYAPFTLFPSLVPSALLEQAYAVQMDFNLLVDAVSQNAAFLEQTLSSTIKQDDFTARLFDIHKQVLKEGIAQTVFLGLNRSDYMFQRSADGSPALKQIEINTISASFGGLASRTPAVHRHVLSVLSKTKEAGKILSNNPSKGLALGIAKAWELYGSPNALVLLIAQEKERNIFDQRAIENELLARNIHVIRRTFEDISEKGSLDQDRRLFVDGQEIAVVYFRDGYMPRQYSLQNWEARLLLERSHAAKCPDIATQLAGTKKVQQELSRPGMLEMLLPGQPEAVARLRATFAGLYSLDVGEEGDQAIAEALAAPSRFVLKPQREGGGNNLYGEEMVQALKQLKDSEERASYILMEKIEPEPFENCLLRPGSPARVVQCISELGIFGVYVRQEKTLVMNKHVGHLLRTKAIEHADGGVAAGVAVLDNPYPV
Assay: microscale thermophoresis, BLUE-NHS labelled protein
Conditions: read-out: equilibrium binding constant

O=C(Nc1ccc([N+](=O)[O-])cc1Cl)c1cc(Cl)ccc1O [niclosamide]
Kd: 5.64 µM

From article PMC5344920, “Drug Repurposing of the Anthelmintic Niclosamide to Treat Multidrug-Resistant Leukemia” (Frontiers in Pharmacology, 2017)
